This note sets out measurements from paper PMC3984011 (Journal of medicinal chemistry, 2013).

In general, inhibition refers to the relative decrease from the control value, in per cent.

Common to all, as to assay type: cell-based
In test [1] the target is T1, DAGLβ (diacylglycerol lipase-β) (Mus musculus, UniProt Q91WC9).
T1 sequence (Q91WC9 1-669): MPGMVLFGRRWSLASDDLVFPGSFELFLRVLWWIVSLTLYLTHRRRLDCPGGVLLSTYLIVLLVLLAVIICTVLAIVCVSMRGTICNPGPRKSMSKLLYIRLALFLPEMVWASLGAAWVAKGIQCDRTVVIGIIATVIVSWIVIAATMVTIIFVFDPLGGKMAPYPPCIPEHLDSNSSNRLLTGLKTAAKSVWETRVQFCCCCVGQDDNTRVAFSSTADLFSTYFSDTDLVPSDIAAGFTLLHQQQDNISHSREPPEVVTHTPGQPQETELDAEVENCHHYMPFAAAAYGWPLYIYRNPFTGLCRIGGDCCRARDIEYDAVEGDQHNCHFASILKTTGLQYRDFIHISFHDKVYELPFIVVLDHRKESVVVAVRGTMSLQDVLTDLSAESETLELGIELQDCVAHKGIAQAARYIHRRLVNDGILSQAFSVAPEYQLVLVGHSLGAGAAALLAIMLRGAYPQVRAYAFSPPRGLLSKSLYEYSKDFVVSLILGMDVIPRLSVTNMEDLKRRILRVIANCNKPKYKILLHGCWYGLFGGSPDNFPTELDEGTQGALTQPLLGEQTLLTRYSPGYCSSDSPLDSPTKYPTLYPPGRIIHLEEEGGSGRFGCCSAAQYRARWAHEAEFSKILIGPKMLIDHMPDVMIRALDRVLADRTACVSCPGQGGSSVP
Put plainly: gel-based competitive ABPP, DAGLβ-HEK293T membrane lysate, probe […]. The settings on record: read-out: DAGLβ % inhibition (100 nM).

Test [2] concerns the target T1, DAGLβ (diacylglycerol lipase-β). Put plainly: gel-based competitive ABPP, DAGLβ-HEK293T lysate, probe […]. The settings on record: read-out: DAGLβ % inhibition (100 nM).
For test [3] the target is unchanged. Put plainly: competitive ABPP-SILAC in Neuro2A. The settings on record: N2a, read-out: % inhibition at 20 μM.

On to `O=C(N1CCCCC1Cc1ccccc1)n1cc(-c2ccc(-c3ccccc3)cc2)nn1` (stereo not drawn) [compound 11, KT109], for which the inhibition at 0.1 µM in test [1] turned out to be 60.8%.

Regarding `COc1ccccc1-c1ccc(-c2cn(C(=O)N3CCCCC3Cc3ccccc3)nn2)cc1` (racemic) [compound 27, KT172], the inhibition at 0.1 µM in test [2] was 55.3%.

Consider `Cc1cc(C)n2c1C=C1C=CC(CCC(=O)NCCCCCN(CCc3ccccc3)C(=O)n3cc(-c4ccc(OC(F)(F)F)cc4)nn3)=[N+]1[B-]2(F)F` [compound 38, HT-01], for which the inhibition at 20 µM in test [3] was more than 80%.
